Where two headings read alike, the source gives them in different places.
How the values were obtained:
[1] = tested on: experimental hormone-dependent tumor cells; conditions: vs tamoxifen; cited from earlier work
[2] = vs tamoxifen; cited from earlier work
[3] = tested on: uterus; test: Anti-uterotrophic effect (inhibition of uterine weight gain in immature rats); assay type: in vivo, rat (Sprague-Dawley, female; conditions: Rattus norvegicus, 504 h, read-out: ED50 (50% inhibition of uterine weight gain)
Description: The antiuterotophic activity of each test compound was studied using immature 4-week-old female Sprague-Dawley rats, according to the method described in Methods in Hormone Research, vol. 2, Academic Press p. 707 (1962).
Each test compound was suspended in a vehicle solution (i.e., an aqueous solution containing 0.5% of carboxymethylcellulose and 0.5% of Tween 80) and the suspension was orally administered using a stomach tube 6 times a week for 3 consecutive weeks at various doses. The animals were autopsied one day after the final administration and the uterus was weighed.
The percent inhibition of uterine weight gain was calculated by the formula
Percent inhibition=(A-C)×100/(A-B)
where A is the mean value of the uterine weight of the control which received the vehicle solution, B is that of the ovariectomized control (i.e., animals ovariectomized at the age of four weeks and thereafter treated with the vehicle solution for 3 weeks) and C is that of the animals which received each dose of each test compound. Then, the dose of each test compound causing a 50% inhibition (ED50) was calculated from the dose-response curve.

[4] = tested on: mammary cancer induced by 7,12-dimethylbenzanthracene (DMBA); test: Effect on DMBA-induced mammary cancer: inhibition of tumor growth; assay type: in vivo, rat (Sprague-Dawley, female); conditions: 6 times a week for 3 weeks, 15 animals
Protocol: (§1) The experiments were performed in 7-week-old female Sprague-Dawley rats bearing mammary cancer which had been induced by oral administration of 7,12-dimethylbenzanthracene (DMBA) according to the method described in European Journal of Cancer and Clinical Oncology 11, 571 (1975) and Cancer Research 26, 2169 (1966). The inhibitory effect of each test compound on this cancer was investigated.
(§2) Each test compound was suspended in an aqueous solution containing 0.5% of carboxymethylcellulose and 0.5% of Tween 80 and the suspension was orally administered by gastric gavage 6 times a week for 3 consecutive weeks. Once a week and on the 21st day, the number of induced tumors was counted and the surface area of tumors was measured. The percent increase in surface area relative to the surface area on the first day of administration was calculated and the result was compared with the result in the control group. The inhibitory effects on the appearance of new tumor are shown in Table 7 and the inhibitory effects on the enlargement of the tumor are shown in Table 8. The inhibition of appearance of new tumor (%) was calculated according to the formula: 100-(N/M)×100 where N is the number of newly appeared tumors in test group and M is the number of newly appeared tumors in control group.

[5] = tested on: mammary cancer induced by 7,12-dimethylbenzanthracene (DMBA); test: Effect on DMBA-induced mammary cancer: inhibition of appearance of new tumor; assay type: in vivo, rat (Sprague-Dawley, female); conditions: for Inhibition of appearance of new tumor: 6 times a week for 3 weeks, 15 animals
Protocol: as §1, §2

[6] = Acute toxicity test (oral and intraperitoneal, Up-and-Down method); parameters: species or system mouse (ddY strain); conditions: mouse, in vivo, 6-week old male ddY mice, 3 weeks observation
Protocol: The acute oral and intraperitoneal toxicity of these compounds were investigated in 6-week old male ddY strain mice. In the oral toxicity study, each test compound was suspended or dissolved in an aqueous solution containing 0.5% of carboxymethylcellulose and 0.5% of Tween 80 and was administered at a dose of 4 ml/100 g. In the intraperitoneal toxicity study, each test compound was suspended or dissolved in physiological saline containing 0.5% of Tween 80 and was administered at a dose of 2 ml/100 g.

[7] = ip, intraperitoneal, read-out: LD50 intraperitoneal

Row | SMILES | antitumor activity in vitro, in words [1] | effectiveness in vivo, in words [2] | ED50 ([3]; po) | Inhibition of tumor growth (on day 21) ([4]; 0.1 mg/kg/day p.o.) | Inhibition of tumor growth (on day 21) ([4]; 0.3 mg/kg/day p.o.) | Inhibition of appearance of new tumor ([5]; 0.1 mg/kg/day p.o.) | Inhibition of appearance of new tumor ([5]; 0.3 mg/kg/day p.o.) | LD50 at 504 h [6, 7] | LD50 at 504 h ([6]; oral, read-out: LD50 oral) | ED50 ([3]; oral, 6 times a week for 3 weeks, immature female SD rats, 7 animals) | inhibition of appearance of new mammary cancer, in words ([5]; 0.1 mg/kg/day)
1 | CC/C(=C(\c1ccc(O)cc1)c1ccc(OCCN(C)C)cc1)c1ccccc1 [4-hydroxytamoxifen] | more potent antitumor activity than tamoxifen | inferior in effectiveness to tamoxifen |  |  |  |  |  |  |  |  | 
2 | CC/C(=C(/c1ccc(OCCN(C)C)cc1)c1ccc(OP(=O)(O)O)cc1)c1ccccc1 [Compound 1, (E)-4-[1-[4-[2-(Dimethylamino)ethoxy]phenyl]-2-phenyl-1-butenyl]-phenyl phosphate] |  |  | 0.076 mg/kg | 26.5% | 42.3% | 56.7% | 54.7% | 223 mg/kg | > 2000 mg/kg |  | 
3 | CCC(=C(c1ccc(OCCN(C)C)cc1)c1ccc(OP(=O)(O)O)cc1)c1ccc(C(C)C)cc1 [Compound 5] |  |  | 0.097 mg/kg | 26.5% | 50.2% | 46.7% | 48.5% | 354 mg/kg | > 2000 mg/kg |  | 
4 | CCOc1ccc(/C(CC)=C(/c2ccc(OCCN(C)C)cc2)c2ccc(OP(=O)(O)O)cc2)cc1 [Compound 7] |  |  | 0.026 mg/kg |  |  |  |  | 223 mg/kg | > 2000 mg/kg |  | 
5 | CC/C(=C(\c1ccccc1)c1ccc(OCCN(C)C)cc1)c1ccccc1 [Tamoxifen, reference compound] |  |  |  | 4.7% | 39.0% | -7.7% | 21.0% | 177 mg/kg | > 2000 mg/kg | 0.203 mg/kg | ineffective
